# Patent US9921163B2, “Method and device for detecting analytes” (IMEC VZW, priority 2013, dated 2018)
# Test: SERS monitoring of boronic acid derivative binding to diol-modified SERS substrate (flow cell)
# Description: During the experiments, one type of gold nanostructured SERS substrates were applied. Hereto, a bare SiO2 substrate was cleaned prior to the deposition of polystyrene beads with a diameter of 100 nm (obtained from Thermo Fisher Scientific). Due to electrostatic forces, the nanoparticles form a closed-packed layer on the SiO2 substrate. Then, the substrate was carefully rinsed with H2O. Afterwards, a thin layer of Au (˜50 nm) was deposited onto the polystyrene-coated SiO2 substrate using sputter deposition. The as such obtained SERS substrates were cleaned with an aceton-H2O mixture and dried with a stream of N2. Additionally, the samples were cleaned using UV-O3 treatment for 15 min prior to the experiments.
# The SERS substrates were immerged into a solution containing 1 mM thiolated glucose for 3 days at room temperature in the dark (i.e. 1-Thio-β-D-glucose sodium salt dihydrate obtained from Toronto Research Chemicals). […]
# The SERS substrates functionalized with the thiolated glucose molecules were mounted into a home-made flow cell connected to a peristaltic pump system. […] The corresponding Raman signal was monitored using a Raman setup of LabRAM. […] FIG. 5 represents the SERS intensity monitored at 1075±1 cm^−1 using a time interval of 25 s. […] The response was also measured in real time as represented in FIG. 8. […]
structure (smiles),measurement,setting,value
"OB(O)c1ccccc1 [PBA, Phenyl boronic acid]",SERS intensity at 1075±1 cm^−1 (PBA binding to immobilized thiolated glucose),"1 mM PBA in carbonate buffer, 785 nm, 0.5 mW, 25 s interval",an increase of the signal is obtained over time
same,SERS response of PBA interacting with immobilized thiolated glucose in presence of human serum albumin,human serum albumin 2000 mg/dl in carbonate mixed 1/1 with 1 mM PBA,a clear SERS response
